“Also recorded” adds a separate entry of the source. Structures can show the parent of a compound that is named as a salt.
Legend:
EGFR [1] = biological target: T1, EGFR (Homo sapiens, UniProt P00533); assay: blocking of panitumumab (vectibix) binding to EGFR; settings: FIG. 3
EGFR [2] = biological target: T1, EGFR; assay: ELISA, blocking of cetuximab binding to EGFR; settings: for blocking of cetuximab binding to EGFR (in words): ELISA
A431 cells [3] = assay: annexin-V/PI flow cytometry, panitumumab induced death in A431 cells; type: cell-based; settings: 72 hours
Description: Apoptosis and cell death were evaluated by annexin-V and propidium-iodide (PI) labeling, followed by flow cytometry. The experiments show improved cell viability of A431 cells treated with G-4 and E-3 compounds with panitumumab as compared to panitumumab alone. A) flow cytometry of one representative experiment showing elevation of percentage of live cells from 18% live cells after panitumumab alone verses 40% live cells with panitumumab and G-4 compound and 42% live cells with E-3 compound and panitumumab treatment. B) bar graph depicting percent live A431 cells with the different treatment conditions.

A431 cells [4] = assay: annexin-V/PI flow cytometry, cetuximab induced cell death in A431 cells; type: cell-based
Description: (§1) Apoptosis and cell death were evaluated by annexin-V and propidium-iodide (PI) labeling, followed by flow cytometry.

HaCaT cells [5] = assay: annexin-V/PI flow cytometry, cetuximab induced cell death in HaCaT cells; type: cell-based, human
Description: (§2) The novel approach proposed by the invention is to specifically target and block the effect of the anti-neoplastic biological targeted agents in the skin.
as §1

[6] = test system: phosphorylated EGFR receptor; assay: p-EGFR level by flow cytometry, A431 cells treated with EGF and cetuximab; type: cell-based; settings: for effect on p-EGFR expression (in words): A431 cells treated with cetuximab, 5 uM compound; for activated levels of p-EGFR: A431 cells, 20 minutes, EGF, cetuximab and 5 uM compound
Description: (§3) The level of phosphorylated EGFR receptor was measured in cell lines by flow cytometry.

[7] = test system: phosphorylated EGFR receptor; assay: p-EGFR level by flow cytometry, HaCaT cells treated with EGF and cetuximab; type: cell-based, human; settings: for effect on p-EGFR expression (in words): HaCaT cells treated with cetuximab, 5 uM compound
Description: as §2, §3

[8] = Franz chamber skin penetration; type: in vitro ADME, human; settings: FIG. 12
Excerpt: The inventors designed and fabricated solidified polymer micelles composed of linear […] (PEG-PLA) of ˜20 nm, which was previously shown to have stability and ability to penetrate cells efficiently.

[9] = biological target: recombinant human EGFR (rhEGFR) (Homo sapiens, UniProt P00533); assay: ELISA, inhibition of bispecific EGFRi antibody binding to rhEGFR
Description: (§4) The efficacity of SDT-011 efficacy in preventing bispecific EGFRi binding to recombinant human EGFR (rhEGFR) was evaluated. ELISA was used to assess binding inhibition, while MTT assays in HaCaT and A431 cell lines measured the reversal of EGFR inhibition on keratinocyte cell line proliferation, and flow cytometry quantified EGFR expression on the cell surface. Additionally, in silico docking experiments provided insights into SDT-011's mechanism of action in blocking amivantamab, petosemtamab, and izalontamab.

EGFR [10] = biological target: T1, EGFR; assay: flow cytometry of EGFR expression on the cell surface with bispecific EGFRi; type: cell-based
Description: as §4

[11] = test system: HaCaT and A431 cell lines; assay: MTT proliferation assay with bispecific EGFRi; type: cell-based; settings: keratinocyte cell lines
Description: as §4

HaCaT cells [12] = assay: annexin-V/PI flow cytometry, erlotinib induced death in HaCaT cells; type: cell-based, human; settings: erlotinib alone, 72 hours
Description: To test if ATP analogues can protect keratinocyte from erlotinib induced death we treated HaCaT cells with erlotinib alone and with erlotinib+5 uM ATP analogue for 72 hours. Apoptosis and cell death were evaluated by annexin-V and propidium-iodide (PI) labeling, followed by flow cytometry. […] B) bar graph depicting percent dead HaCaT cells with the different treatment conditions.

keratinocytes = assay: percent live keratinocytes after adding sn molecules to erlotinib and gefitinib; type: cell-based; settings: added to erlotinib and gefitinib, FIG. 9B
HaCaT keratinocytes = assay: percent survival of HaCaT keratinocytes with trametinib plus sn8; type: cell-based, human; settings: added to trametinib, FIG. 9B
[13] = panitumumab + compound (0.5 uM and 5 uM)
[14] = G-4 added to cetuximab treatment, 72 hours, one representative experiment
[15] = cetuximab + 0.5 uM and 5 uM G-4, 72 hours

Compound: Cc1cc(Cl)cc(N)c1N [E3, (2-amino-4-chloro-6-methylphenyl)amine hydrochloride]
- blocking of panitumumab (vectibix) binding to EGFR (in words) (EGFR [1]): block the binding
- blocking of cetuximab binding to EGFR (in words) (EGFR [2]; hydrochloride): blocking of cetuximab binding to EGFR; also recorded: dose-dependent manner
- live cells (A431 cells [3]; [13]): 42%

Compound: CC(=O)c1sc2nc(-c3cccnc3)cc(C(F)F)c2c1N [G4, 1-[3-amino-4-(difluoromethyl)-6-(3-pyridinyl)thieno[2,3-b]pyridin-2-yl]ethanone]
- live cells (A431 cells [4]; [14]): 54.5%
- average improvement of viability against cetuximab induced cell death (A431 cells [4]; [15]): more than 50%
- live cells (HaCaT cells [5]; [14]): 64%
- average improvement of viability against cetuximab induced cell death (HaCaT cells [5]; [15]): 30%
- blocking of panitumumab (vectibix) binding to EGFR (in words) (EGFR [1]): block the binding
- effect on p-EGFR expression (in words) [6]: increase p-EGFR expression
- activated levels of p-EGFR [6]: ~30%
- blocking of cetuximab binding to EGFR (in words) (EGFR [2]): blocking of cetuximab binding to EGFR; also recorded: dose-dependent manner; also recorded: block cetuximab's binding to EGFR
- blocking of binding of cetuximab to EGFR (EGFR [2]; screening plate, FIG. 2A): 42%
- effect on p-EGFR expression (in words) [7]: increase p-EGFR expression
- penetration through full human skin (in words) [8]: does not penetrate full human skin
- live cells (A431 cells [3]; [13]): 40%

Compound: Cc1ccc(-c2cc(C(F)(F)F)c3c(N)c(C#N)sc3n2)cc1 [LW11]
- effect on p-EGFR expression (in words) [6]: increase p-EGFR expression
- activated levels of p-EGFR [6]: ~30%
- blocking of cetuximab binding to EGFR (in words) (EGFR [2]): dose-dependent manner; also recorded: block cetuximab's binding to EGFR
- inhibition of amivantamab binding to EGFR (in words) ([9]; FIG. 17 panel A): effectively inhibited the binding
- inhibition of petosemtamab binding to EGFR (in words) ([9]; FIG. 17 panel B): effectively inhibited the binding
- inhibition of izalontamab binding to EGFR (in words) ([9]; FIG. 17 panel C): effectively inhibited the binding
- total EGFR (tEGFR) expression / receptor internalization by amivantamab (in words) (EGFR [10]; FIG. 18 panel A): stabilizes total EGFR (tEGFR) expression
- total EGFR (tEGFR) expression / receptor internalization by petosemtamab (in words) (EGFR [10]; FIG. 18 panel B): stabilizes total EGFR (tEGFR) expression
- total EGFR (tEGFR) expression / receptor internalization by izalontamab (in words) (EGFR [10]; FIG. 18 panel C): stabilizes total EGFR (tEGFR) expression
- effect on p-EGFR expression (in words) [7]: increase p-EGFR expression
- activated levels of p-EGFR ([7]; HaCaT cells, 20 minutes, EGF, cetuximab and 5 uM compound): up to 46%
- antiproliferative effects induced by amivantamab (in words) ([11]; FIG. 18 panel D): reversal of the antiproliferative effects
- antiproliferative effects induced by petosemtamab (in words) ([11]; FIG. 18 panel E): reversal of the antiproliferative effects
- antiproliferative effects induced by izalontamab (in words) ([11]; FIG. 18 panel F): reversal of the antiproliferative effects

Compound: C#Cc1cccc(Nc2ncnc3cc(OCCOC)c(OCCOC)cc23)c1 [erlotinib]
- dead cells (HaCaT cells [12]): 13.5%

Compound: N#Cc1cc(N)ccc1F [sn6]
- percent live keratinocytes (in words) (keratinocytes): improved percent live keratinocytes

Compound: CC(=O)Nc1ccc(F)c(Cl)c1 [sn7]
- percent live keratinocytes (in words) (keratinocytes): improved percent live keratinocytes

Compound: Nc1ccc(OCc2ccccn2)c(Cl)c1 [sn8]
- percent live keratinocytes (in words) (keratinocytes): improved percent live keratinocytes
- percent survival of HaCaT keratinocytes (in words) (HaCaT keratinocytes): improved percent survival of HaCaT keratinocytes

Compound: O=C(CN1C(=O)c2ccccc2C1=O)Nc1cccc(Cl)c1 [sn9]
- percent live keratinocytes (in words) (keratinocytes): improved percent live keratinocytes

Compound: panitumumab: human monoclonal antibody specific to the epidermal growth factor receptor [reference compound]
- live cells (A431 cells [3]; panitumumab alone): 18%
